MIC50 and LC50 data for 9 compounds are collected here from ChEMBL document CHEMBL5143576, “Tigliane Diterpenoids with Larvicidal, Antifungal, and α-Glucosidase Inhibitory Activities from Croton damayeshu” (J Nat Prod, 2022).

Values after ≈ are worked out from the molar mass of the structure shown.

Type in all cases: functional
In assay [1] the test system is Candida albicans. Nature of the assay: Antifungal activity against Fluconazole- resistant Candida albicans incubated for 24 hrs in presence of fluconazole by microbroth dilution method.
Another assay relates to Plutella xylostella. Nature of the assay: Larvicidal activity against Plutella xylostella assessed as mortality and measured upto 4 days. To be noted: 96 h, time <= 4 day.
For assay [2], the system named is Candida albicans. Briefly: Antifungal activity against Fluconazole- resistant Candida albicans incubated for 24 hrs by microbroth dilution method. On the technique in general: Broth dilution looks for growth in wells or tubes with falling amounts of substance.
Assay [3] deals with Candida albicans. Briefly: Antifungal activity against Candida albicans incubated for 24 hrs by microbroth dilution method.

With `CC[C@H](C)C(=O)O[C@@]12[C@H](OC(=O)c3ccccc3)[C@@H](C)[C@@]3(O)[C@@H](C=C(CO)C[C@]4(O)C(=O)C(C)=C[C@@H]34)[C@@H]1C2(C)C`, the MIC50 with Candida albicans [1] was 5.1 µg/mL. For the compound `CCCCC/C=C\CCC(=O)O[C@@]12[C@H](OC(=O)[C@@H](C)CC)[C@@H](C)[C@@]3(O)[C@@H](C(=O)C(CO)=C[C@]4(O)C(=O)C(C)=C[C@@H]34)[C@@H]1C2(C)C`, the 50% lethal concentration (LC50) in the assay on Plutella xylostella was 190 nM. Further, the MIC50 against Candida albicans [2] is 200 µg/mL (≈ 325 µM); in the assay on Candida albicans [1], 63.4 µg/mL.

In the case of `C/C=C(\C)C(=O)O[C@@H]1[C@@H](C)[C@@]2(O)[C@@H](C(=O)C(CO)=C[C@]3(O)C(=O)C(C)=C[C@@H]23)[C@@H]2C(C)(C)[C@]12OC(=O)CC/C=C\CCCCC`, the median lethal concentration (LC50) in the assay with Plutella xylostella came to 260 nM. For the compound `CCCCCCCC(=O)O[C@@]12[C@H](OC(=O)[C@@H](C)CC)[C@@H](C)[C@@]3(O)[C@@H](C(=O)C(CO)=C[C@]4(O)C(=O)C(C)=C[C@@H]34)[C@@H]1C2(C)C`, the MIC50 with Candida albicans [2] is 114 µg/mL (≈ 193 µM); with Candida albicans [1], 50.5 µg/mL. `CCCCCCCCCC(=O)O[C@@]12[C@H](OC(=O)[C@@H](C)CC)[C@@H](C)[C@@]3(O)[C@@H](C(=O)C(CO)=C[C@]4(O)C(=O)C(C)=C[C@@H]34)[C@@H]1C2(C)C`: the figures for the MIC50 against Candida albicans [2] and with Candida albicans [1] were 161 µg/mL (≈ 261 µM) and 5.18 µg/mL, respectively.

Regarding `CC[C@H](C)C(=O)O[C@@H]1[C@@H](C)[C@@]2(O)[C@@H](C(=O)C(CO)=C[C@]3(O)C(=O)C(C)=C[C@@H]23)[C@@H]2C(C)(C)[C@]12OC(=O)[C@@H](C)CC`, the figures for the MIC50 in the assay with Candida albicans [2] and with Candida albicans [1] were 15.1 µg/mL (≈ 27.6 µM) and 14 µg/mL, respectively. `OC(Cn1cncn1)(Cn1cncn1)c1ccc(F)cc1F` [FLUCONAZOLE] gave an MIC50 in the assay with Candida albicans [3] of 4.4 µg/mL (≈ 14.4 µM). For `Cc1cc(C(F)(C(F)(F)F)C(F)(F)F)ccc1NC(=O)c1cccc(I)c1C(=O)NC(C)(C)CS(C)(=O)=O` [FLUBENDIAMIDE], the median lethal concentration (LC50) in the assay on Plutella xylostella came out at 140 nM.

On to `CC/C=C\C/C=C\CCC(=O)O[C@@]12[C@H](OC(=O)[C@@H](C)CC)[C@@H](C)[C@@]3(O)[C@@H](C(=O)C(CO)=C[C@]4(O)C(=O)C(C)=C[C@@H]34)[C@@H]1C2(C)C`, for which the LC50 in the assay with Plutella xylostella turned out to be 160 nM. In addition, the values for the MIC50 with Candida albicans [2] and in the assay with Candida albicans [1] were 159 µg/mL (≈ 260 µM) and 11.9 µg/mL, respectively.

For orientation: MIC50 means an inhibitory concentration at the 50% level, which refers to growth in some studies and to a panel of isolates in others. The term LC50 denotes the concentration lethal to half of the exposed cells or organisms.
